Experimental data taken from DBAASP.
In brackets after ≈: the same amount, converted by molar mass.

Tests used:
Test in all cases: ≥ marks a high value that may be exact or a test limit, other limits are often not marked, values filed in µg/mL are converted to µM
Bacillus subtilis 1A751 = system: Bacillus subtilis 1A751
[1] = system: Escherichia coli ATCC 25922
[2] = system: Staphylococcus aureus ATCC 25923
[3] = system: Salmonella enterica subsp. enterica serovar Choleraesuis CMCC 50020
[4] = system: Pseudomonas aeruginosa ATCC 27853
[5] = system: Staphylococcus aureus ATCC 29213
[6] = system: Staphylococcus epidermidis RP62A
[7] = system: Klebsiella pneumoniae ATCC 700603
[8] = system: Proteus mirabilis ATCC 25933
[9] = system: Candida albicans ATCC 90028
Acinetobacter baumannii = system: Acinetobacter baumannii
[10] = system: Staphylococcus epidermidis RP62A/1
[11] = system: Escherichia coli ATCC 25726
[12] = system: Stenotrophomonas maltophilia
[13] = system: Pseudomonas aeruginosa ATCC 15692
[14] = system: Candida albicans ATCC 10231
[15] = system: Staphylococcus epidermidis ATCC 12228
[16] = system: Pseudomonas syringae pv. tabaci 1918NCPPB
[17] = system: Streptococcus pyogenes ATCC 21547
[18] = system: Yersinia pseudotuberculosis YPIII
[19] = system: Acinetobacter baumannii ATCC 19606
Acinetobacter junii RT-4 = system: Acinetobacter junii RT-4
[20] = system: Staphylococcus aureus Cowan 1
Staphylococcus capitis 1 = system: Staphylococcus capitis 1
Saccharomyces cerevisiae = system: Saccharomyces cerevisiae
Escherichia coli D21 = system: Escherichia coli D21
[21] = system: Enterococcus faecalis ATCC 29212
[22] = system: Schizosaccharomyces pombe
Bacillus megaterium Bm11 = system: Bacillus megaterium Bm11
[23] = system: Candida tropicalis AY91009
Pseudomonas fluorescens = system: Pseudomonas fluorescens
[24] = system: Escherichia coli DH5alpha
[25] = system: Enterobacter cloacae subsp. cloacae AB2010162
[26] = system: Staphylococcus aureus AB94004
Escherichia coli JM109 = system: Escherichia coli JM109
Pseudomonas putida = system: Pseudomonas putida
[27] = system: Klebsiella oxytoca AB2010143
[28] = system: Bacillus magaterium AB90008
[29] = system: Salmonella enterica AB2010185
[30] = system: Bacillus thuringiensis AB93100

CC[C@H](C)[C@H](NC(=O)[C@H](CCCCN)NC(=O)[C@H](CC(=O)O)NC(=O)[C@H](CC(C)C)NC(=O)[C@@H](NC(=O)[C@H](CC(N)=O)NC(=O)[C@H](CC(C)C)NC(=O)[C@H](Cc1ccccc1)NC(=O)[C@H](Cc1ccccc1)NC(=O)[C@H](CCCCN)NC(=O)[C@H](CCCCN)NC(=O)CNC(=O)[C@H](C)NC(=O)[C@H](CCC(N)=O)NC(=O)[C@H](CCCCN)NC(=O)[C@@H](NC(=O)[C@@H](NC(=O)[C@H](CC(=O)O)NC(=O)[C@H](Cc1c[nH]c2ccccc12)NC(=O)[C@H](CC(C)C)NC(=O)CN)[C@@H](C)O)[C@@H](C)CC)C(C)C)C(=O)N[C@@H](CCCN=C(N)N)C(=O)N[C@H]1CSSC[C@@H](C(=O)N[C@@H](CCCN=C(N)N)C(=O)N[C@H](C(=O)O)[C@@H](C)O)NC(=O)CNC(=O)CNC(=O)[C@H](C)NC(=O)[C@H](C(C)C)NC(=O)[C@H](CCCCN)NC1=O [GLWDTIKQAGKKFFLNVLDKIRCKVAGGCRT]
MIC (Bacillus subtilis 1A751): 1.15 µM (≈ 4 µg/mL) | MIC [1]: 4.61 µM (≈ 16 µg/mL) | MIC [2]: 4.61 µM (≈ 16 µg/mL) | MIC [3]: ≥ 36.9 µM

CC[C@H](C)[C@H](N)C(=O)N[C@@H](CCCCN)C(=O)N[C@@H](CC(C)C)C(=O)N[C@@H](CO)C(=O)N1CCC[C@H]1C(=O)N[C@@H](CCCCN)C(=O)N[C@H](C(=O)N[C@@H](CCCCN)C(=O)N[C@@H](CC(=O)O)C(=O)N[C@@H](CC(N)=O)C(=O)N[C@@H](CC(C)C)C(=O)N[C@@H](CCCCN)C(=O)N[C@@H](CCCCN)C(=O)N[C@H](C(=O)N[C@@H](CC(C)C)C(=O)N[C@@H](CCCCN)C(=O)NCC(=O)N[C@@H](C)C(=O)N[C@H](C(=O)N[C@@H](CCCCN)C(=O)NCC(=O)N[C@@H](C)C(=O)N[C@H](C(=O)N[C@@H](C)C(=O)N[C@H](C(=O)N[C@@H](C)C(=O)N[C@@H](CCCCN)C(=O)N[C@@H](CCSC)C(=O)N[C@H](C(N)=O)C(C)C)C(C)C)[C@@H](C)CC)[C@@H](C)CC)C(C)C)[C@@H](C)O [IKLSPKTKDNLKKVLKGAIKGAIAVAKMV]
MIC [4]: 12.5 µM (≈ 38.3 µg/mL) | MIC [5]: 3.1 µM (≈ 9.49 µg/mL) | MIC [6]: 0.8 µM (≈ 2.45 µg/mL) | MIC [7]: 6.25 µM (≈ 19.1 µg/mL) | MIC [8]: ≥ 100 µM | MIC [9]: ≥ 100 µM | MIC (Acinetobacter baumannii): 6.25 µM (≈ 19.1 µg/mL) | MIC [10]: 0.8 µM (≈ 2.45 µg/mL) | MIC [11]: 6.25 µM (≈ 19.1 µg/mL) | MIC [12]: 1.6 µM (≈ 4.9 µg/mL) | MIC [2]: 1.6 µM (≈ 4.9 µg/mL)

CC(C)C[C@H](NC(=O)[C@H](CC(C)C)NC(=O)[C@H](CCCN=C(N)N)NC(=O)CNC(=O)[C@H](CC(C)C)NC(=O)[C@H](CC(C)C)NC(=O)[C@H](CCCCN)NC(=O)[C@H](CO)NC(=O)[C@H](CC(C)C)NC(=O)[C@H](Cc1c[nH]c2ccccc12)NC(=O)[C@H](CCC(N)=O)NC(=O)[C@H](CC(C)C)NC(=O)[C@@H](N)CC(C)C)C(N)=O [LLQWLSKLLGRLL]
MIC [4]: 24 µM (≈ 37.2 µg/mL) | MIC [13]: 12 µM (≈ 18.6 µg/mL) | MIC [14]: 6 µM (≈ 9.31 µg/mL) | MIC [15]: 1.5 µM (≈ 2.33 µg/mL) | MIC [16]: 6 µM (≈ 9.31 µg/mL) | MIC [17]: 6 µM (≈ 9.31 µg/mL) | MIC [18]: 3 µM (≈ 4.66 µg/mL) | MIC [19]: 12 µM (≈ 18.6 µg/mL) | MIC (Acinetobacter junii RT-4): 24 µM (≈ 37.2 µg/mL) | MIC [20]: 1.5 µM (≈ 2.33 µg/mL) | MIC (Staphylococcus capitis 1): 1.5 µM (≈ 2.33 µg/mL) | MIC (Saccharomyces cerevisiae): 3 µM (≈ 4.66 µg/mL) | MIC (Escherichia coli D21): 12 µM (≈ 18.6 µg/mL) | MIC [21]: 3 µM (≈ 4.66 µg/mL) | MIC [22]: 3 µM (≈ 4.66 µg/mL) | MIC [1]: 6 µM (≈ 9.31 µg/mL) | MIC [2]: 3 µM (≈ 4.66 µg/mL) | MIC (Bacillus megaterium Bm11): 1.5 µM (≈ 2.33 µg/mL)

CC[C@H](C)[C@H](NC(=O)[C@H](CC(C)C)NC(=O)[C@H](CCCN=C(N)N)NC(=O)[C@H](CCCCN)NC(=O)[C@@H](NC(=O)[C@@H](NC(=O)CNC(=O)[C@H](CC(C)C)NC(=O)[C@H](CC(C)C)NC(=O)[C@H](CCCN=C(N)N)NC(=O)CNC(=O)[C@H](CO)NC(=O)[C@H](CCC(=O)O)NC(=O)[C@H](CCCN=C(N)N)NC(=O)[C@H](CCC(=O)O)NC(=O)[C@H](CCCCN)NC(=O)[C@H](CCC(=O)O)NC(=O)[C@H](CO)NC(=O)[C@@H](NC(=O)CNC(=O)[C@@H](N)CO)[C@@H](C)O)C(C)C)C(C)C)C(=O)N[C@H](C(=O)N[C@@H](CS)C(=O)N[C@@H](Cc1ccccc1)C(=O)N[C@@H](CCCN=C(N)N)C(=O)N[C@@H](CO)C(=O)N1CCC[C@H]1C(=O)N[C@@H](Cc1ccccc1)C(=O)N1CCC[C@H]1C(N)=O)C(C)C [SGTSEKERESGRLLGVVKRLIVCFRSPFP]
MIC [23]: ≥ 48.6 µM | MIC (Pseudomonas fluorescens): 23.8 µM (≈ 77.3 µg/mL) | MIC [24]: ≥ 51.2 µM | MIC [25]: ≥ 47.9 µM | MIC [26]: 23.6 µM (≈ 76.6 µg/mL) | MIC (Escherichia coli JM109): ≥ 50.4 µM | MIC (Pseudomonas putida): 24 µM (≈ 77.9 µg/mL) | MIC [27]: ≥ 50.5 µM | MIC [28]: 11.8 µM (≈ 38.3 µg/mL) | MIC [29]: 25 µM (≈ 81.2 µg/mL) | MIC [30]: ≥ 46.5 µM
